From US7795244B2, “Penem prodrugs” (priority 2006, dated 2010)
Converted amounts (≈) assume the structure as drawn. “And” between values parts separate entries of the source, which are not always exact repeats. Equal values may be shown once. Read-outs that look alike come from different tables or passages of the source. One block for each compound: values may come before it.

Columns and labels:
[1] = Stability in the presence of porcine pancrelipase (PPE); format: in vitro ADME; conditions: pig, porcine pancrelipase (ku-zyme HP) in phosphate buffer, 50 μM substrate, pH 7.4, 37° C.
[2] = human, pH 7.4
[3] = tested on: K. pneumoniae 6485; assay: Murine acute systemic infection model; conditions: Murine acute systemic infection vs. K. pneumoniae 6485; oral BID; survival day four post-infection; repeat experiments
[4] = Equilibrium solubility; format: physicochemical; conditions: aqueous buffer, thermodynamic from solid, 25 mM phosphate buffer (pH 5), ambient temperature / 25° C.
Method: Vials containing excess prodrug in phosphate buffer were rotated for up to 48 hours. After the equilibrium period, samples were pulled, filtered through 0.45 μm Gelman Acrodisc Nylon syringe filter and analyzed for drug concentration using HPLC. The HPLC conditions were: Column. C18, SymmetryShield RP, Waters, 4.6×150 mm, 3.5 micron; Mobile phase A: Acetonitrile; Mobile phase B: 0.1% TFA in water; Flow rate, 1 mL/min; Run Time: 30 min Inj. vol. 20 μL; Detection: 210 nm; Dissolving solvent: Acetonitrile/water (50:50 v:v).

[5] = Stability in human intestinal juice (HIJ); conditions: pooled human intestinal juice (4 subjects), buffered, pH 7.4
[6] = tested on: S. pneumoniae 1095; assay: Murine acute systemic infection model; conditions: Murine acute systemic infection vs. S. pneumoniae 1095; oral BID; survival day four post-infection; repeat experiments
[7] = tested on: K. pneumoniae 1109; assay: Murine acute systemic infection model; conditions: Murine acute systemic infection vs. K. pneumoniae 1109; oral BID; survival day four post-infection; repeat experiments
[8] = tested on: S. pneumoniae 1095; assay: Murine respiratory tract infection model; conditions: Murine respiratory tract infection vs. S. pneumoniae 1095; oral BID for two days from 18 h post-infection; survival day ten; repeat experiments
[9] = by comparison to intravenous AUCs (Table 4, Foulds et al.), cited from earlier work
[10] = humans; given orally as a mixture of two stereoisomers; Foulds et al.; cited from earlier work
[11] = Pharmacokinetics of total radioactivity after single oral dose; format: in vivo, Sprague-Dawley Rats; conditions: single oral 200 mg/kg; rats
Method: A separate study using a single 200 mg/kg dose of each radiolabeled compound (pivalic acid and […]) was completed in rats to determine systemic exposure of dose following oral administration. The oral administration route was chosen because it is expected that the majority of hydrolysis of the prodrugs will occur within the intestine prior to entering systemic circulation. Plasma samples were obtained prior to dosing and at 0.25, 0.5, 1, 4, 8, and 24 hr post-dose. Samples were quantified for radioactivity by liquid scintillation counting and the counts were converted to […] equivalents/mL. As shown in Table 5 and FIG. 2, once absorbed, radioactivity associated with 2-ethylbutyric acid is cleared 4.5 fold faster than pivalic acid, reflecting efficient metabolic processing and excretion of the compound.

[12] = tested on: plasma carnitine; assay: Acute model of carnitine depletion; format: in vivo; conditions: 200 mg/kg BID orally for 4 days, Sprague-Dawley rats, relative to vehicle control (FIG. 1)
Method: Of interest was a comparison between Compound 1 and […] in terms of the prodrug side chains' tendency or lack thereof to deplete plasma carnitine following metabolism of the intact prodrug. This was evaluated in vivo using an acute model of carnitine depletion in Sprague-Dawley rats. To understand the potential impact in vivo, radiolabeled pivalic acid (Compound B1 side chain) and 2-ethylbutyric acid (Compound 1 side chain) were administered orally at a dose of 200 mg/kg BID for 4 days to two separate groups of animals. […] Doses were administered in 100 mM sodium phosphate pH 6.6 at a dose volume of 10 mL/kg. Blood samples were obtained at 24 hour intervals following initiation of the study, processed for plasma and assayed for carnitine levels by LC/MS/MS. A vehicle control consisting of oral administration of an equal volume of buffer without compound was completed as a baseline comparison.

[13] = tested on: porcine pancrelipase (PPE); assay: Stability in the presence of porcine pancrelipase (PPE); format: in vitro ADME; conditions: ku-zyme Lot 1; 50 μM substrate, pH 7.4, 37° C.
[14] = tested on: H. influenzae BLNAR; assay: Gerbil otitis media model; conditions: Gerbil otitis media vs. H. influenzae BLNAR, oral TID for two days from 18 h post-infection, bacterial levels in middle ear fluid day four, repeat experiments

half-life at 50 µM ([1]; pH 7.4, ku-zyme Lot 1): 6.3 min
Structure (SMILES): C[C@@H](O)[C@H]1C(=O)N2C(C(=O)OCOC(=O)C(C)(C)C(C)(C)C)=C(S[C@H]3CC[S@@+]([O-])C3)S[C@H]12 [S]

half-life at 50 µM ([1]; pH 7.4, ku-zyme Lot 1): 7.7 min
Structure (SMILES): CC(C)C(C(=O)OCOC(=O)C1=C(S[C@H]2CC[S@@+]([O-])C2)S[C@@H]2[C@@H]([C@@H](C)O)C(=O)N12)C(C)C [T]

half-life at 50 µM ([1]; pH 7.4, ku-zyme Lot 1): 4.8 min
Structure (SMILES): CCCC(C)C(=O)OCOC(=O)C1=C(S[C@H]2CC[S@@+]([O-])C2)S[C@@H]2[C@@H]([C@@H](C)O)C(=O)N12 (stereo partly shown) [Q]

half-life at 50 µM ([1]; pH 7.4, ku-zyme Lot 1): 7.6 min
Structure (SMILES): C[C@@H](O)[C@H]1C(=O)N2C(C(=O)OCOC(=O)CC(C)(C)C)=C(S[C@H]3CC[S@@+]([O-])C3)S[C@H]12 [W]

half-life at 50 µM ([1]; pH 7.4, ku-zyme Lot 1): 6.4 min
Structure (SMILES): CC(C)CC(=O)OCOC(=O)C1=C(S[C@H]2CC[S@@+]([O-])C2)S[C@@H]2[C@@H]([C@@H](C)O)C(=O)N12 [E]

half-life at 50 µM ([1]; pH 7.4, ku-zyme Lot 1): 39.4 min
Structure (SMILES): CCC(C)(CC)C(=O)OCOC(=O)C1=C(S[C@H]2CC[S@@+]([O-])C2)S[C@@H]2[C@@H]([C@@H](C)O)C(=O)N12 [M]

half-life at 50 µM ([1]; pH 7.4, ku-zyme Lot 1): 4.7 min
Structure (SMILES): CCC(=O)OCOC(=O)C1=C(S[C@H]2CC[S@@+]([O-])C2)S[C@@H]2[C@@H]([C@@H](C)O)C(=O)N12 [X]

half-life at 50 µM ([1]; pH 7.4, ku-zyme Lot 1): 10.5 min
Structure (SMILES): CC(C)CC(C)(C)C(=O)OCOC(=O)C1=C(S[C@H]2CC[S@@+]([O-])C2)S[C@@H]2[C@@H]([C@@H](C)O)C(=O)N12 [V]

clearance of radioactivity, fold faster than pivalic acid [11]: 4.5 fold
Structure (SMILES): CCC(CC)C(=O)O [2-ethylbutyric acid]
change in plasma carnitine [12]: statistically insignificant changes in plasma carnitine

half-life at 50 µM ([1]; pH 7.4, ku-zyme Lot 1): 11.1 min
Structure (SMILES): CC(C)C(C)(C)C(=O)OCOC(=O)C1=C(S[C@H]2CC[S@@+]([O-])C2)S[C@@H]2[C@@H]([C@@H](C)O)C(=O)N12 [N]

PPE Half Life [13]: 4.2 min
Structure (SMILES): CCC(C)C(=O)OCOC(=O)C1=C(S[C@H]2CC[S@@+]([O-])C2)S[C@@H]2[C@@H]([C@@H](C)O)C(=O)N12 (stereo partly shown) [P]

HIJ Clint (avg) [2]: 0.18 mL/min | half-life at 50 µM ([1]; pH 7.4, ku-zyme Lot 1): 21.2 min | Km [5]: 390 µM
Structure (SMILES): CC(=O)OCOC(=O)C1=C(S[C@H]2CC[S@@+]([O-])C2)S[C@@H]2[C@@H]([C@@H](C)O)C(=O)N12 [G]

half-life at 50 µM ([1]; pH 7.4, ku-zyme Lot 1): 14.4 min
Structure (SMILES): CCCC(C)(C)C(=O)OCOC(=O)C1=C(S[C@H]2CC[S@@+]([O-])C2)S[C@@H]2[C@@H]([C@@H](C)O)C(=O)N12 [Compound I]

half-life at 50 µM ([1]; pH 7.4, ku-zyme Lot 1): 5.3 min
Structure (SMILES): CCC(C(=O)OCOC(=O)C1=C(S[C@H]2CC[S@@+]([O-])C2)S[C@@H]2[C@@H]([C@@H](C)O)C(=O)N12)C(C)C (stereo partly shown) [R]

half-life at 50 µM ([1]; pH 7.4, ku-zyme Lot 1): 6.8 min
Structure (SMILES): CCC(C)C(=O)OCOC(=O)C1=C(S[C@H]2CC[S@@+]([O-])C2)S[C@@H]2[C@@H]([C@@H](C)O)C(=O)N12 (stereo partly shown) [H]

half-life at 50 µM ([1]; pH 7.4, ku-zyme Lot 1): 14.5 min
Structure (SMILES): CCCCC(C)(C)C(=O)OCOC(=O)C1=C(S[C@H]2CC[S@@+]([O-])C2)S[C@@H]2[C@@H]([C@@H](C)O)C(=O)N12 [K]

The remaining lines, values behind:

Structure (SMILES): CCC(CC)(CC)C(=O)OCOC(=O)C1=C(S[C@H]2CC[S@@+]([O-])C2)S[C@@H]2[C@@H]([C@@H](C)O)C(=O)N12 [Compound C]
half-life at 50 µM ([1]; pH 7.4, ku-zyme Lot 1): 21.1 min

Structure (SMILES): CC(C)C(=O)OCOC(=O)C1=C(S[C@H]2CC[S@@+]([O-])C2)S[C@@H]2[C@@H]([C@@H](C)O)C(=O)N12 [F]
half-life at 50 µM ([1]; pH 7.4, ku-zyme Lot 1): 4.7 min

Structure (SMILES): C[C@@H](O)[C@H]1C(=O)N2C(C(=O)OCOC(=O)C(C(C)(C)C)C(C)(C)C)=C(S[C@H]3CC[S@@+]([O-])C3)S[C@H]12 [Y]
half-life at 50 µM ([1]; pH 7.4, ku-zyme Lot 1): 8 min

Structure (SMILES): C[C@@H](O)[C@H]1C(=O)N2C(C(=O)OCOC(=O)C(C)(C)C)=C(S[C@H]3CC[S@@+]([O-])C3)S[C@H]12 [Compound B1, reference compound]
HIJ Clint (avg) [2]: 0.11 mL/min | PD50 [3]: >100 mg/kg | solubility [4]: 389 µg/mL (≈ 839 µM) | half-life at 50 µM ([1]; pH 7.4, ku-zyme lot 2): 22.5 min | Km [5]: 29 µM

Structure (SMILES): CCOC(C)(C)C(=O)OCOC(=O)C1=C(S[C@H]2CC[S@@+]([O-])C2)S[C@@H]2[C@@H]([C@@H](C)O)C(=O)N12 [Compound 2, (2-Ethoxy-2-methyl-1-oxopropoxy)methyl (5R,6S)-6-[(1R)-1-hydroxyethyl]-7-oxo-3-[[(1R,3S)-tetrahydro-1-oxido-3-thienyl]thio]-4-thia-1-azabicyclo[3.2.0]hept-2-ene-2-carboxylate]
PD50 [6]: 7.9 mg/kg and 6.3 mg/kg and 11.0 mg/kg | HIJ Clint (avg) [2]: 0.13 mL/min | solubility [4]: 2900 µg/mL (≈ 5870 µM) | half-life at 50 µM ([1]; pH 7.4, ku-zyme Lot 1): 19.1 min | PD50 [7]: 12.5 mg/kg and 16.2 mg/kg | Km [5]: 105 µM | PD50 [8]: 19.7 mg/kg and 38.5 mg/kg

Structure (SMILES): C[C@@H](O)[C@H]1C(=O)N2C(C(=O)OCOC(=O)C(C)(C)C)=C(S[C@H]3CC[S@@+]([O-])C3)S[C@H]12 (racemic) [Compound B2, reference compound]
HIJ Clint (avg) [2]: 0.09 mL/min | fraction absorbed ([9]; sulopenem equivalent dose 205 mg): 38.5% | fraction absorbed ([9]; sulopenem equivalent dose 409 mg): 33.5% | half-life at 50 µM ([1]; pH 7.4, ku-zyme Lot 1): 11.6 min | half-life at 50 µM ([1]; pH 7.4, ku-zyme lot 2): 19.6 min | Km [5]: 40 µM

Structure (SMILES): CC(O)C1C(=O)N2C(C(=O)OCOC(=O)C(C)(C)C)=C(SC3CC[S+]([O-])C3)SC12 (stereo not shown) [sulopenem POM ester]
oral bioavailability (in words) [10]: orally bioavailable in humans

Structure (SMILES): CCC(C)(C)C(=O)OCOC(=O)C1=C(S[C@H]2CC[S@@+]([O-])C2)S[C@@H]2[C@@H]([C@@H](C)O)C(=O)N12 [J]
half-life at 50 µM ([1]; pH 7.4, ku-zyme Lot 1): 11 min

Structure (SMILES): CC(C)CC(CC(C)C)C(=O)OCOC(=O)C1=C(S[C@H]2CC[S@@+]([O-])C2)S[C@@H]2[C@@H]([C@@H](C)O)C(=O)N12 [U]
half-life at 50 µM ([1]; pH 7.4, ku-zyme Lot 1): 6.4 min

Structure (SMILES): CCCC(CCC)C(=O)OCOC(=O)C1=C(S[C@H]2CC[S@@+]([O-])C2)S[C@@H]2[C@@H]([C@@H](C)O)C(=O)N12 [O]
half-life at 50 µM ([1]; pH 7.4, ku-zyme Lot 1): 8.3 min

Structure (SMILES): C[C@@H](O)[C@H]1C(=O)N2C(C(=O)OCOC(=O)OC3CCC(C)(C)CC3)=C(S[C@H]3CC[S@@+]([O-])C3)S[C@H]12 [Compound A]
PD50 [6]: 9.0 mg/kg and 15.3 mg/kg | HIJ Clint (avg) [2]: 0.38 mL/min | PD50 [3]: 40.7 mg/kg | solubility [4]: 136 µg/mL (≈ 255 µM) | half-life at 50 µM ([1]; pH 7.4, ku-zyme Lot 1): 3.9 ± 1.1 min | half-life at 50 µM ([1]; pH 7.4, ku-zyme lot 2): 6.3 min | PD50 [7]: 10.1 mg/kg and 15.3 mg/kg | ED50 [14]: 8.7 mg/kg | ED50 ([14]; Haemophilus influenzae, in Meriones unguiculatus, po): 6.9 mg/kg | Km [5]: 300 µM | PD50 [8]: 17.8 mg/kg and 20.8 mg/kg
